Assay results taken from ChEMBL document CHEMBL2010643 (Bioorg Med Chem Lett, 2012).
Calls of active or inactive are those of the source.

What was measured:
[1] = tested on: Mus musculus; experiment: Inhibition of LRRK2 phosphorylation at Ser935 in C57BL/6 mouse spleen at 100 mg/kg, po administered for 8 hrs followed by 2 hrs dosing; type: functional, organism-based; parameters: dose 100 mg/kg
[2] = target: T1, Leucine-rich repeat serine/threonine-protein kinase 2 (Homo sapiens, UniProt Q5S007); experiment: Inhibition of wild type LRRK2 phosphorylation at Ser910 in human lymphoblastoid cells at 0.03 to 3 uM after 90 mins by Western blot analysis; type: cell-based
T1 sequence (Q5S007 whole entry): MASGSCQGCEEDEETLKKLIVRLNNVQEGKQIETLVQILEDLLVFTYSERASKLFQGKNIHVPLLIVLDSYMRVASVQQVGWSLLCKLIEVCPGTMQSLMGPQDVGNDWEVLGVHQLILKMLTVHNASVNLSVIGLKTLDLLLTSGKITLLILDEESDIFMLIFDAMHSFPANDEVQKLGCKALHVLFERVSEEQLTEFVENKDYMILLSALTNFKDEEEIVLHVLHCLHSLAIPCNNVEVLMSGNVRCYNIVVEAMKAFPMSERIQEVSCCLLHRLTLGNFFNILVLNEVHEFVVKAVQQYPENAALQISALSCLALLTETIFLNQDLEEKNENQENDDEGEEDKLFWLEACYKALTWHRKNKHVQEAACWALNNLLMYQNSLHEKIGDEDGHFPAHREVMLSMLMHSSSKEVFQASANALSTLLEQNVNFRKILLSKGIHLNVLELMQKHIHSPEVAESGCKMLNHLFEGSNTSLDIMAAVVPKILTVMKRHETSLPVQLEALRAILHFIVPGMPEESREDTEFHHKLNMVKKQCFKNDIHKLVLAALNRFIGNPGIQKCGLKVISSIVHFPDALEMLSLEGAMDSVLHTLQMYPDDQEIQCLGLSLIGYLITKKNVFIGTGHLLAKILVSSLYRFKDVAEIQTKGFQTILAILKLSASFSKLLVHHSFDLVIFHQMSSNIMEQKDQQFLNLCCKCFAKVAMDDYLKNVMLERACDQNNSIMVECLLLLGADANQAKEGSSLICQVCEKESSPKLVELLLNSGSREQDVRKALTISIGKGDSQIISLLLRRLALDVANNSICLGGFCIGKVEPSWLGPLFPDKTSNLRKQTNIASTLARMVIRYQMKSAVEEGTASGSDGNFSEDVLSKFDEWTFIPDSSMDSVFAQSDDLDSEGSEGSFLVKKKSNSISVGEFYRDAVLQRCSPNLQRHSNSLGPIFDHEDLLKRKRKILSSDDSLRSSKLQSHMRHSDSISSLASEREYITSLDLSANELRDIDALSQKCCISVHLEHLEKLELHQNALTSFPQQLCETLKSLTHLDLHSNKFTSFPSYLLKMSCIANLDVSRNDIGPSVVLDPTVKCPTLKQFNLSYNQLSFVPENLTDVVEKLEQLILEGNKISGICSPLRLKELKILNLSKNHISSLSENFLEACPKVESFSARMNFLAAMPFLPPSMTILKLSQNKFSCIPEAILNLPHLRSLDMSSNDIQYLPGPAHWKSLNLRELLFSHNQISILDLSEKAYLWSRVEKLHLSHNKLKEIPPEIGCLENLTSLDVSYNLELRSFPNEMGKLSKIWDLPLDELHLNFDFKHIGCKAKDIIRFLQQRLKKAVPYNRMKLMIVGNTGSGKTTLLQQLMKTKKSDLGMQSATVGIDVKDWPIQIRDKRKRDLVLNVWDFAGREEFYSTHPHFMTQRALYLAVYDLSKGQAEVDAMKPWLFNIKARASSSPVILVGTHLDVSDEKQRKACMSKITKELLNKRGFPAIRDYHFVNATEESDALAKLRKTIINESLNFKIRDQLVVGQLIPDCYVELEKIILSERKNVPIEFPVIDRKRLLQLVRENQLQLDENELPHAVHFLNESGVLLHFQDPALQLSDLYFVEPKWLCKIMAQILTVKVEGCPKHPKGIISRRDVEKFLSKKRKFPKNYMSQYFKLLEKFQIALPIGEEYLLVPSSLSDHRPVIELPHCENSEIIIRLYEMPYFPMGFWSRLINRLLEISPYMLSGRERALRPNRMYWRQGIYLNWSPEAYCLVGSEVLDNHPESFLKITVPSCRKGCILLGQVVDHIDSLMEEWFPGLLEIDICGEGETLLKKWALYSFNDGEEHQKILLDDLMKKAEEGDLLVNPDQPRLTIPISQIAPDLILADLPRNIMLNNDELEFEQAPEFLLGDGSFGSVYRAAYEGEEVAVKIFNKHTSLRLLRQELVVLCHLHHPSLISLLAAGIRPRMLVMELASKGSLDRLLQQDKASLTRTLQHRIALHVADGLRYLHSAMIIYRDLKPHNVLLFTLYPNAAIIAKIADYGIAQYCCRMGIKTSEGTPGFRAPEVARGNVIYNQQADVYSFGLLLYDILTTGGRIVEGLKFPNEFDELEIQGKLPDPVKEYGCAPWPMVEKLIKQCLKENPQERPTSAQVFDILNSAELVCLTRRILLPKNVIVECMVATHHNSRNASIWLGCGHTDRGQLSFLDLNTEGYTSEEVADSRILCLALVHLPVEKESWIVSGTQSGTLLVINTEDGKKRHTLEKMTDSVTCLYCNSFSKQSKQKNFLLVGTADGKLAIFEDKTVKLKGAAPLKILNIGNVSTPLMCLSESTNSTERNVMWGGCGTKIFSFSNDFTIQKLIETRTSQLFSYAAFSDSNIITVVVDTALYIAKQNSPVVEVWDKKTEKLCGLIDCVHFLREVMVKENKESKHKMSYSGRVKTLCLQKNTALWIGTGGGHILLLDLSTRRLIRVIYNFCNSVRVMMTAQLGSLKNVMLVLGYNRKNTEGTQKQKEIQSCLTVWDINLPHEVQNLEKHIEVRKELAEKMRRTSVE

[3] = target: T1, Leucine-rich repeat serine/threonine-protein kinase 2; experiment: Inhibition of wild-type LRRK2 expressed in HEK293 cells using nictide and [gamma32]ATP as substrate
[4] = tested on: Mus musculus; experiment: Inhibition of LRRK2 phosphorylation at Ser910 in C57BL/6 mouse spleen at 100 mg/kg, po administered for 8 hrs followed by 2 hrs dosing; type: functional, organism-based; parameters: dose 100 mg/kg
[5] = target: T1, Leucine-rich repeat serine/threonine-protein kinase 2; conditions: HEK293; 0.03 to 3 uM
Description: Inhibition of wild-type LRRK2 phosphorylation at Ser935 expressed in HEK293 cells at 0.03 to 3 uM after 90 mins by immunoblot analysis

[6] = target: T1, Leucine-rich repeat serine/threonine-protein kinase 2; conditions: HEK293; 0.03 to 3 uM; remark: listed apart in the source
Description: Inhibition of wild-type LRRK2 phosphorylation at Ser910 expressed in HEK293 cells at 0.03 to 3 uM after 90 mins by immunoblot analysis

[7] = tested on: Mus musculus; experiment: Inhibition of LRRK2 phosphorylation at Ser935 in C57BL/6 mouse kidney at 100 mg/kg, po administered for 8 hrs followed by 2 hrs dosing; type: functional, organism-based; parameters: dose 100 mg/kg
[8] = tested on: Mus musculus; experiment: Inhibition of LRRK2 phosphorylation at Ser910 in C57BL/6 mouse kidney at 100 mg/kg, po administered for 8 hrs followed by 2 hrs dosing; type: functional, organism-based; parameters: dose 100 mg/kg
[9] = target: T1, Leucine-rich repeat serine/threonine-protein kinase 2; experiment: Inhibition of wild type LRRK2 phosphorylation at Ser935 in human lymphoblastoid cells at 0.03 to 3 uM after 90 mins by Western blot analysis; type: cell-based

COc1cc(C(=O)N2CCC(N3CCN(C)CC3)CC2)ccc1Nc1ncc2c(n1)N(C)c1ccccc1C(=O)N2C
13 nM: IC50 [3]
active: inhibition [1] | inhibition [2] | inhibition [4] | inhibition [5] | inhibition [6] | inhibition [7] | inhibition [8] | inhibition [9]
